# Test results as given in patent US8268786B2, “Anti-cancer tocotrienol analogues and associated methods” (First Tech International Limited, priority 2009, dated 2012).
# Read-outs that look alike come from different tables or passages of the source.
# Key:
# [1] = system: ER-positive human breast cancer cells MCF7; assay: MTT antiproliferative assay, MCF7 cells; format: cell-based; details: for potency relative to parent natural tocotrienol / antiproliferative activity (in words): MCF7; for potency relative to parent natural tocotrienol: 4 and 10 versus Compound 1, 8 versus Compound 2
# Method: (§1) For each of the assays performed the compounds were dissolved in aqueous culture media by binding the compounds with bovine serum albumin (BSA).
# (§2) An amount of each compound appropriate for the desired final compound concentration was placed in a 1.5 mL screw top glass vial and dissolved in 100 μL of 100% ethanol. Once dissolved, this ethanol/compound solution was added to a small volume of sterile 10% BSA in water and incubated overnight at 37° C. […] Ethanol was added to all treatment media such that the final ethanol concentration was the same in all treatment groups within a given experiment and was always less than 0.1%. Although the examples provided have been described in conjunction with specified amounts of ethanol and other compounds it should be understood that the invention is applicable to embodiments not having those limited concentration.
# (§3) The cell growth of MCF7 (Example 24) and MDA-MB-231 (Example 25) cell lines was measured using the MTT assay procedures described above and an MTT assay kit (TACS™, Trevogen®, Inc., Gaithersburg, Md.). After passing the cells for 3-4 times, growing cells were incubated in a 96-well plate at a density of 8×10^3 cells per well, and allowed to attach for 24 hours. Complete growth medium was then replaced with 100 μL of RPMI serum free medium (GIBCO-Invitrogen, NY) containing various doses (20, 10, 5, 2 μM) of the tested compound and the culture continued at 37° C. under 5% CO2. After 96 hours, the incubated cells were treated with MTT solution (10 μL/well) at 37° C. for 4 hours. The color reaction was stopped by the addition of solubilization/stop solution (100 μL/well). The cells continued to be incubated at 37° C. to completely dissolve the formazan product. Absorbance of the samples was determined at 570 nm with an ELISA plate reader (BioTek, VT). Absorbance readings were converted to estimated cell numbers based on a standard curve prepared by plating various concentration of cells, as determined by hemocytometer, and measuring the absorbance of those cells at the start of each experiment. The IC50 value of each compound was calculated using nonlinear regression (curve fit) of log concentration versus the number of cells/well implemented using GraphPad Prism 5.0 program. The procedure was identical for both human breast cancer cell lines MCF7 and MDA-MB-231.
# [2] = system: ER-negative human breast cancer cells MDA-MB-231; assay: MTT antiproliferative assay, MDA-MB-231 cells; format: cell-based; details: for antiproliferative activity (in words): MDA-MB-231
# Method: as §1, §2, §3
# [3] = system: highly metastatic breast cancer cell line MDA-MB-231; assay: BME Cell Invasion Assay (Boyden chamber, calcein-AM); format: cell-based, human; details: for anti-invasive activity (in words): MDA-MB-231, 5 μM
# Method: Anti-Invasion Assays were performed to measure the anti-invasive properties of Compounds 1-21 using a 96 well basement membrane extract “BME” Cell Invasion Assay (Cultrex®, Trevogen, Catalog# 3455-096-K) with the highly metastatic breast cancer cell line MDA-MB-231. This assay employs a simplified Boyden Chamber design with a polyethylene terephthalate membrane (8 μm). Detection of cell invasion is quantified using calcein-AM. Cells internalize calcein-AM and intracellular esterases cleave the acetomethylester moiety to generate free calcein. Free calcein fluoresces brightly, and this fluorescence may be used to quantify the number of cells that have invaded across BME. (See Tamilarasan and Borghesani, referenced above)
# About […] of basement membrane extract (BME, 1×) coat was added per well. After overnight incubation at 37° C. in a 5% CO2 incubator, 50,000/50 μL of MDA-MB-231 cells in serum free RPMI medium were added to the top chamber of each well, which contained the tested compound at a treatment concentration of 5 μM. About 150 μL of RPMI medium was added to the lower chamber, which contained 10% fetal bovine serum, penicillin/streptomycin, and fibronectin (1 μL/mL) and N-formyl-met-leu-phe (10 nM) as chemoattractants. Cells were allowed to migrate to the lower chamber at 37° C. in a CO2 incubator. After 24 h, the top and bottom chambers were aspirated and washed with a washing buffer solution. About 100 μL of cell dissociation solution/Calcein-AM solution was added to the bottom chamber and incubated for 1 hour at 37° C. in a CO2 incubator. The cells internalized calcein-AM, and the intracellular esterases cleaved the acetomethylester (AM) moiety to generate free calcein. Fluorescence of the samples was determined at 485 nm excitation; 520 nm emissions were measured using a plate reader (BioTek, VT). The numbers of cells that invaded through the BME coat were calculated using a standard curve.
# Differences among the various treatment groups were determined by analysis of variance (ANOVA) followed by Dunnett's t-test. Differences were considered to be statistically significant at a value of <0.05, as compared to vehicle treated controls.
# [4] = 96 hours, serum free medium, calculated by nonlinear regression, read-out: MCF7 IC50
# [5] = 96 hours, serum free medium, calculated by nonlinear regression, read-out: MDA-MB-231 IC50
# [6] = Homo sapiens, MCF7, 96 h, read-out: MCF7 IC50 μM
# [7] = Homo sapiens, MDA-MB-231, 96 h, read-out: MDA-MB-231 IC50 μM
"IC50 [1, 4]","IC50 [2, 5]",SMILES,"IC50 [1, 6]","IC50 [2, 7]",further results
> 20 µM,> 10 µM,"CC(C)=CCC/C(C)=C/CC/C(C)=C/CC[C@]1(C)CCc2c(C)c(O)c(C)c(C)c2O1 [Compound 1, α-tocotrienol, reference compound]",–,–,–
4.5 µM,> 10 µM,"CC(C)=CCC/C(C)=C/CC/C(C)=C/CCC1(C)CCc2c(C)c(OC(=O)NS(=O)(=O)c3ccccc3)c(C)c(C)c2O1 (centres unmarked) [Compound 4, 2,5,7,8-tetramethyl-2-((3E,7E)-4,8,12-trimethyltrideca-3,7,11-trienyl)chroman-6-ylphenylsulfonylcarbamate]",–,–,potency relative to parent natural tocotrienol [1]: 8 fold
> 10 µM,> 10 µM,"CC(C)=CCC/C(C)=C/CC/C(C)=C/CCC1(C)CCc2cc(OC(=O)NS(=O)(=O)c3ccccc3)c(C)c(C)c2O1 (centres unmarked) [Compound 5, 2,7,8-trimethyl-2-((3E,7E)-4,8,12-trimethyltrideca-3,7,11-trienyl)chroman-6-ylphenylsulfonylcarbamate]",–,–,–
6.1 µM,> 10 µM,"CC(C)=CCC/C(C)=C/CC/C(C)=C/CCC1(C)CCc2cc(OC(=O)NS(=O)(=O)c3ccccc3)cc(C)c2O1 (centres unmarked) [Compound 6, 2,8-dimethyl-2-((3E,7E)-4,8,12-trimethyltrideca-3,7,11-trienyl)chroman-6-ylphenylsulfonylcarbamate]",–,–,antiproliferative activity (in words) [1]: activities greater than the natural tocotrienols from which they were derived
–,–,"CC(C)=CCC/C(C)=C/CC/C(C)=C/CC[C@]1(C)CCc2c(C)c(OC(=O)NS(=O)(=O)c3ccc(C)cc3)c(C)c(C)c2O1 [Compound 7, (R)-2,5,7,8-tetramethyl-2-((3E,7E)-4,8,12-trimethyltrideca-3,7,11-trienyl)chroman-6-yl tosylcarbamate]",6.1 µM,> 10 µM,antiproliferative activity (in words) [1]: activities greater than the natural tocotrienols from which they were derived
–,–,"CC(C)=CCC/C(C)=C/CC/C(C)=C/CC[C@]1(C)CCc2c(C)c(OC(=O)NS(=O)(=O)c3ccc(Cl)cc3)c(C)c(C)c2O1 [Compound 10, (R)-2,5,7,8-tetramethyl-2-((3E,7E)-4,8,12-trimethyltrideca-3,7,11-trienyl)chroman-6-yl 4-chlorophenylsulfonylcarbamate]",2.4 µM,> 10 µM,potency relative to parent natural tocotrienol [1]: 8 fold
–,–,"CC(C)=CCC/C(C)=C/CC/C(C)=C/CC[C@]1(C)CCc2cc(OC(=O)NS(=O)(=O)c3ccc(Cl)cc3)c(C)c(C)c2O1 [Compound 11, (R)-2,7,8-trimethyl-2-((3E,7E)-4,8,12-trimethyltrideca-3,7,11-trienyl)chroman-6-yl 4-chlorophenylsulfonylcarbamate]",> 10 µM,> 10 µM,–
–,–,"CC(C)=CCC/C(C)=C/CC/C(C)=C/CC[C@]1(C)CCc2cc(OC(=O)NS(=O)(=O)c3ccc(Cl)cc3)cc(C)c2O1 [Compound 12, (R)-2,8-dimethyl-2-((3E,7E)-4,8,12-trimethyltrideca-3,7,11-trienyl)chroman-6-yl 4-chlorophenylsulfonylcarbamate]",> 10 µM,> 10 µM,–
–,–,"CC(C)=CCC/C(C)=C/CC/C(C)=C/CC[C@]1(C)CCc2c(C)c(OC(=O)Nc3ccccc3)c(C)c(C)c2O1 [Compound 13, (R)-2,5,7,8-tetramethyl-2-((3E,7E)-4,8,12-trimethyltrideca-3,7,11-trienyl)chroman-6-yl phenylcarbamate]",> 20 µM,> 10 µM,anti-invasive activity (in words) [3]: more active than their natural tocotrienol parent compounds; antiproliferative activity (in words) [2]: improved activities
–,–,"CC(C)=CCC/C(C)=C/CC/C(C)=C/CC[C@]1(C)CCc2cc(OC(=O)Nc3ccccc3)c(C)c(C)c2O1 [Compound 14, (R)-2,7,8-trimethyl-2-((3E,7E)-4,8,12-trimethyltrideca-3,7,11-trienyl)chroman-6-yl phenylcarbamate]",> 10 µM,> 10 µM,–
–,–,"CC(C)=CCC/C(C)=C/CC/C(C)=C/CC[C@]1(C)CCc2cc(OC(=O)Nc3ccccc3)cc(C)c2O1 [Compound 15, (R)-2,8-dimethyl-2-((3E,7E)-4,8,12-trimethyltrideca-3,7,11-trienyl)chroman-6-yl phenylcarbamate]",> 10 µM,> 10 µM,–
–,–,"CC(C)=CCC/C(C)=C/CC/C(C)=C/CC[C@]1(C)CCc2c(C)c(OC(=O)NCc3ccccc3)c(C)c(C)c2O1 [Compound 16, (R)-2,5,7,8-tetramethyl-2-((3E,7E)-4,8,12-trimethyltrideca-3,7,11-trienyl)chroman-6-yl benzylcarbamate]",> 20 µM,7.2 µM,"MDA-MB-231 cells invasion ([3]; 5 μM, 24 h): 8%; anti-invasive activity (in words) [3]: more active than their natural tocotrienol parent compounds; antiproliferative activity (in words) [2]: improved activities"
–,–,"CC(C)=CCC/C(C)=C/CC/C(C)=C/CC[C@]1(C)CCc2cc(OC(=O)NCc3ccccc3)c(C)c(C)c2O1 [Compound 17, (R)-2,7,8-trimethyl-2-((3E,7E)-4,8,12-trimethyltrideca-3,7,11-trienyl)chroman-6-yl benzylcarbamate]",> 10 µM,> 10 µM,anti-invasive activity (in words) [3]: more active than their natural tocotrienol parent compounds; antiproliferative activity (in words) [2]: improved activities
–,–,"CC(C)=CCC/C(C)=C/CC/C(C)=C/CC[C@]1(C)CCc2cc(OC(=O)NCc3ccccc3)cc(C)c2O1 [Compound 18, (R)-2,8-dimethyl-2-((3E,7E) 4,8,12-trimethyltrideca-3,7,11-trienyl)chroman-6-yl benzylcarbamate]",> 10 µM,> 10 µM,–
–,–,"CC(C)=CCC/C(C)=C/CC/C(C)=C/CC[C@]1(C)CCc2c(C)c(OC(=O)NC(=O)c3ccccc3)c(C)c(C)c2O1 [Compound 19, (R)-2,5,7,8-tetramethyl-2-((3E,7E)-4,8,12-trimethyltrideca-3,7,11-trienyl)chroman-6-yl benzoylcarbamate]",> 20 µM,> 10 µM,–
–,–,"CC(C)=CCC/C(C)=C/CC/C(C)=C/CC[C@]1(C)CCc2cc(OC(=O)NC(=O)c3ccccc3)c(C)c(C)c2O1 [Compound 20, (R)-2,7,8-trimethyl-2-((3E,7E)-4,8,12-trimethyltrideca-3,7,11-trienyl)chroman-6-yl benzoylcarbamate]",> 10 µM,–,–
–,–,"CC(C)=CCC/C(C)=C/CC/C(C)=C/CC[C@]1(C)CCc2cc(OC(=O)NC(=O)c3ccccc3)cc(C)c2O1 [Compound 21, (R)-2,8-dimethyl-2-((3E,7E)-4,8,12-trimethyltrideca-3,7,11-trienyl)chroman-6-yl benzoylcarbamate]",5.6 µM,–,–

SMILES,"IC50 [1, 4]","IC50 [2, 5]","IC50 [1, 6]","IC50 [2, 7]",further results
"CC(C)=CCC/C(C)=C/CC/C(C)=C/CC[C@]1(C)CCc2cc(O)c(C)c(C)c2O1 [Compound 2, γ-tocotrienol, reference compound]",11.4 µM,> 10 µM,–,–,–
"CC(C)=CCC/C(C)=C/CC/C(C)=C/CC[C@]1(C)CCc2cc(O)cc(C)c2O1 [Compound 3, δ-tocotrienol, reference compound]",15.5 µM,> 10 µM,–,–,–
